This is an account of results in patent publication US20250114313A1, “OLIGO-BENZAMIDE ANALOGS AND THEIR USE IN CANCER TREATMENT” (BOARD OF REGENTS, THE UNIVERSITY OF TEXAS SYSTEM, priority 2022, published 2025).

In data set [1] the test system is SUM-159 cells with LIPA KO. Kind of data set: UPR induction and protein synthesis in SUM-159 cells with LIPA KO (RNA-seq, RT-qPCR, western). It is filed as cell-based, Human. Particulars: 1 μM, 4 h. The method, then: (§1) Western blotting: Whole cell lysates from breast cancer cells were prepared with 2× sample buffer (60 mM Tris-HCl, pH 6.8, 2% sodium dodecyl sulfate, 10% glycerol), and before loading mixed with loading buffer (5% 2-mercaptoethanol, 0.1% bromophenol blue) and boiled for denaturation, as previously described.^33 Proteins were separated by SDS-PAGE and subjected to Western analysis using antibodies. To detect nascent translated proteins, puromycin (final concentration 10 μg/mL) was added into cell plates 30 minutes before harvesting cells. Then samples were subjected to the Western blotting. Nascent proteins were detected by anti-puromycin antibody.
Real-time quantitative PCR (RT-qPCR): Total RNA was prepared from breast cancer cells using the RNeasy Mini Kit (Qiagen) according to the manufacturer protocols. Subsequently, total RNAs were reverse transcribed into cDNA using iScript Reverse Transcription Supermix (Bio-rad) and by using SYBR Green on an Illumina Real-Time PCR system.
RNA-sequencing: mRNA-seq sequencing library construction was performed using TruSeq RNA Library Preparation Kit (Illumina) according to the manufacturer's instructions. FASTQ reads from Genomics Core at UTSW were mapped to Human GRCh38 genome using HiSAT2 (RRID:SCR_015530). Differential expression analysis is performed using DEseq2 (RRID:SCR_015687). Abundances of transcripts are calculated using ballgown (Frazee et al. 2014). The values of Fragments Per Kilobase of transcript per Million mapped reads (FPKM) were used for Gene Set Enrichment Analysis (GSEA). GSEA was performed by using the GSEA software (RRID:SCR_005724) and C5 ontology gene sets (14765 gene sets in total). mRNA-seq data from this study are available from NCBI GEO under accession #GSE168800.

For data set [2], the system named is TNBC cells. Put plainly: Global de novo protein synthesis (puromycin labeled nascent proteins), TNBC cells. It is filed as cell-based, Human. Particulars: 1 μM. The procedure: as §1
Data set [3] deals with T1, vinculin (Homo sapiens, UniProt P18206).
T1 construct: heat stability of LAL or vinculin protein in SUM-159 cells; endogenous in cells; host or cells: SUM-159
Put plainly: Cellular thermal shift assay, vinculin. Format: binding. As to conditions: 10 μM, SUM-159 cells. The procedure:
Cellular Thermal Shift Assay (CETSA): Cellular Thermal Shift Assays were performed as described previously^36. Briefly, cells were treated with DMSO or 10 μM ERX-41 for 30 min, then trypsinized, pelleted and resuspended in PBS supplemented with Halt protease inhibitor cocktail (Thermo Scientific), with DMSO or 10 μM ERX-41. Resuspended cells were aliquoted into PCR strips. The cells were incubated in thermal cycler (Bio-rad) at gradient temperatures for 3 minutes, followed by incubation at 25° C. for 3 minutes. Then cells were snap-frozen in liquid nitrogen. Freeze-thaw the cells twice using liquid nitrogen. Then transfer samples into Eppendorf tubes, followed by briefly vortex and centrifuge at 20,000 g for 20 minutes at 4° C. Mix cleared cell lysates with ⅓ volume of 4× Laemmli sample buffer. After boiling, cell lysates were resolved in SDS-PAGE followed by western blotting.

In data set [4] the test system is HMEC cells. Put plainly: Live cell imaging with SYTOX Green, cell death in HMEC. It is filed as cell-based. The method, then:
(§2) Live cell imaging: Live cell images were acquired by Lionheart FX automated microscope (BioTek). Cells were plated one day before the experiment. For cell death assay, 0.2 μM SYTOX Green was added into the plate 15 min before the experiment.

Data set [5] concerns the target T2, ER Alpha-LBD (GST) (Homo sapiens, UniProt P03372).
T2 construct: 3.5 nM ER Alpha-LBD (GST); purchased life technologies A15885
T2 sequence (P03372 311-547 limits assumed): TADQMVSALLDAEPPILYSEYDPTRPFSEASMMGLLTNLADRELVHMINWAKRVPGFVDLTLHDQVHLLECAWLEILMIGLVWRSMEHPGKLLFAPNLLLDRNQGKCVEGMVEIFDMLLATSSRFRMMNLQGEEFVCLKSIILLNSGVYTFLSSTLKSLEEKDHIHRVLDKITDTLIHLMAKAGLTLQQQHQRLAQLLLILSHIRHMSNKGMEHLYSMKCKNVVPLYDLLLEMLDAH
Put plainly: LanthaScreen TR-FRET ER alpha Coactivator Assay, antagonist mode. It is filed as binding. Particulars: 2 h incubation.

Data set [6] has as its system SUM-159 clones with LIPA KO. Put plainly: Live cell imaging with SYTOX Green, SUM-159 LIPA KO. Format: cell-based, Human. As to conditions: 1 μM. The method, then:
as §2

Data set [7] deals with primary TNBC PDEs. Kind of data set: TNBC patient-derived explant (PDE) cultures ex vivo. It is filed as cell-based, human. The text has this:
TNBC patient-derived explant (PDE) studies: For PDE studies excised tissue samples were processed and cultured ex vivo as previously described. De-identified patient tumors were obtained from the UTSW Tissue Repository after institutional review board approval (STU-032011-187). Inclusion criteria included women with prior histologic confirmation of TNBC who were undergoing surgical extirpation or biopsy of their primary tumor. Prior treatment with chemotherapy and/or radiation was allowed. Exclusion criteria included concurrent or prior diagnosis of other malignancies or prior evidence of ERα+ or HER2+ breast cancer. All cases were reviewed by the UTSW Tissue Repository in advance and patients were consented for their tissue to be used for laboratory research. Only de-identified information was shared with the laboratory. None of the laboratory personnel had access to additional patient information. No attrition was noted. Briefly, fresh tumor samples were incubated on gelatin sponges in culture medium containing 10% FBS, followed by treatment with either vehicle or presence of 2.5 μM ERX-41 for 72 h. Representative tissues were fixed in 10% formalin at 4° C. overnight and subsequently processed into paraffin blocks. Sections were then processed for immunohistochemical analysis.
Immunohistochemistry: Immunohistochemical studies were performed as described previously.^7 For the immunohistochemical studies, tissue sections were blocked in background sniper (Biocare Medical, RS966L) followed by overnight incubation with primary antibodies anti-Ki-67 antibody (1:1000, GeneTex cat #GTX16667 RRID:AB_422351) (link), anti-CHOP antibody (1:2000, Sigma, Cat #HPA068416), anti-PERK (phospho T982) antibody (1:150, Abcam Cat #ab192591, RRID:AB_2728666) link)), anti-phospho-eIF2α (Ser51) (1:50, Cell signaling, cs3398) and subsequent secondary antibody incubation for 60 min at room temperature. Immunoreactivity was visualized by using the DAB substrate and counterstained with hematoxylin (Vector Lab, Inc.). […]

Entries after “also recorded” stand apart in the source; their conditions may differ.

T1 sequence (P18206 1-1066 isoform P18206-2): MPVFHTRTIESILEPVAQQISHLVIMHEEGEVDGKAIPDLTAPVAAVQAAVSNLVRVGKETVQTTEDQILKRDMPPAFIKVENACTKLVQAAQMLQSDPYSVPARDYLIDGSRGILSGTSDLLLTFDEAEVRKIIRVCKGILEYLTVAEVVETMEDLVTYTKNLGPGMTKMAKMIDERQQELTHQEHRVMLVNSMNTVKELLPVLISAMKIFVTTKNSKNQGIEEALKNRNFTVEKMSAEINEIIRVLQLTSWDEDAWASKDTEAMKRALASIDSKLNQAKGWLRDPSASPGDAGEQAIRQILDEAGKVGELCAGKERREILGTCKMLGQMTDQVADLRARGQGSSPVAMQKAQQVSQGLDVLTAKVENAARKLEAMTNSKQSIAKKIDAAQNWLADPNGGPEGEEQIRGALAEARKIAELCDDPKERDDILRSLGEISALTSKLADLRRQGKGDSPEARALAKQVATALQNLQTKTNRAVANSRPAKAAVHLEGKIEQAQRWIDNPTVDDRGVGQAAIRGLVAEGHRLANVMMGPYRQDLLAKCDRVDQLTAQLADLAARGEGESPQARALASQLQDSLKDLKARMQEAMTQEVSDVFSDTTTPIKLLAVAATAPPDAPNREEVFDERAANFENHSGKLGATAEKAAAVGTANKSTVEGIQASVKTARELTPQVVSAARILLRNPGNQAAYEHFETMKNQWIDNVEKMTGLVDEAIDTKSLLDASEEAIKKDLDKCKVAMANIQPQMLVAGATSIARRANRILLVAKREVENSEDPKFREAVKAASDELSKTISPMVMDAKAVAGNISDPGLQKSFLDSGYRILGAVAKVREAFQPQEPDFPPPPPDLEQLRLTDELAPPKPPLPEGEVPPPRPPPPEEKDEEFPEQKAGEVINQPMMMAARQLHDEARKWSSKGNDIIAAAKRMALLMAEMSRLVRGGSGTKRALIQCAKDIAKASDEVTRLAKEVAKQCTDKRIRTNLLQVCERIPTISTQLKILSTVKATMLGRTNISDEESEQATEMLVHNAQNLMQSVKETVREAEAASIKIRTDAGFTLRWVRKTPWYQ

In the case of `CC(C)COc1cc(C(=O)Nc2ccc(C(=O)N[C@H]3CC[C@H](C)CC3)cc2OCC(C)C)ccc1NC(=O)c1ccc([N+](=O)[O-])c(OCCO)c1` [ERX-41], in data set [1], the “genes altered by RNA sequencing in LIPA KO cells” value is “no genes significantly altered”. Besides, the “global de novo protein synthesis” value in data set [2] is “blocked; also recorded: blocks de novo protein synthesis”. Moreover, the “thermal stability of vinculin” value in data set [3] is reported as “did not affect vinculin thermal stability”. Also, the “induction of cell death in HMEC” value in data set [4] was “did not significantly induce cell death”. The “interaction with ERα LBD” value in data set [5] is “does not interact with ERG LBD”. The “cell death in SUM-159 with LIPA KO” value in data set [6] is on record as “dramatic decrease in cell death”. In data set [7] (IHC, within 24 h after treatment), the “UPR pathway markers in explants” value is “enhanced pPERK, CHOP (protein product of DDIT3 gene) and peIF2a staining”. In data set [7] (ex vivo), the “apoptosis (cleaved caspase 3 staining) of explants” value is reported as “increased apoptosis” and the “proliferation (Ki67 staining) of explants” value is given as “decreased proliferation”.
